Test results: patent publication US12116592B2, “Methods and compositions for ex vivo expansion of very small embryonic-like stem cells (VSELs)” (University of Louisville Research Foundation, Inc., priority 2016, dated 2024)

Key:
[1] = tested on: Human UCB-derived VSELs (CD133^+/lin^−/CD45^− cells); experiment: Ex vivo expansion of human UCB-derived VSELs; type: cell-based; settings: VPA (1 mM), LH (10 U/ml), FSH (10 U/ml), TGFβ (10 ng/ml) in D-MEM, 10% FBS; at 2 months
Method: Human UCB-derived VSELs were isolated by multi-parameter sorting using a MOFLOW™ XDP sorter (Beckman Coulter, Inc.). Small CD133^+/lin^−/CD45^− cells were plated in 96 well plates in D-MEM medium supplemented with 10% FBS in the presence of VPA (1 mM), LH (10 U/ml), FSH (10 U/ml) and transforming growth factor beta (TGFβ; 10 ng/ml). Cells were cultured for two (2) months in a humidified incubator at 37° C., 5% CO2. Fresh medium was added every 7 days.

[2] = tested on: Sca-1^+/lin^−/CD45^− murine bone marrow VSELs; experiment: Ex vivo expansion of murine VSELs; type: cell-based; settings: 1 mM VPA with 10 U/ml LH and 10 U/ml FSH in D-MEM, 5% FBS; feeder-free; at 2 months
Method: Murine VSELs were isolated by multi-parameter sorting using a MOFLOW™ XDP sorter (Beckman Coulter, Inc., Indianapolis, Indiana, United States of America). Highly purified Sca-1^+/lin^−/CD45^− murine bone marrow VSELs were cultured in D-MEM culture medium containing 5% fetal bovine serum (FBS) supplemented with 10 U/ml luteinizing hormone (LH) and 10 U/ml follicle-stimulating hormone (FSH) in a humidified incubator maintained at 37° C. with 5% CO2. VSELs were exposed to the HDAC inhibitor valproic acid (VPA; Sigma Aldrich, St. Louis, Missouri, United States of America) at a concentration of 1 mM. The cultures were supplemented with fresh LH and FSH every third day. The cultures were maintained for approximately two (2) months.

Structure (SMILES): CCCC(CCC)C(=O)O [VPA, valproic acid]
- average expansion of sorted purified human VSELs as compared to day 0 [1]: 32±5 fold
- average expansion of sorted purified murine VSELs as compared to day 0 [2]: 21±3 fold
